In the NIST ThermoML archive (doi:10.1007/s10765-010-0860-3):

Columns and labels:
[1] = 101 kPa, Liquid; for viscosity: Capillary tube (Ostwald / Ubbelohde) method; for mass density: Pycnometric method
[2] = xn = mol fraction of the nth substance listed; settings: 101 kPa, Liquid; for viscosity: Capillary tube (Ostwald / Ubbelohde) method; for mass density: Pycnometric method

C1CCOC1 [tetrahydrofuran]
[1]
Settings	mass density [kg/m3]	viscosity [mPa·s]
288.15 K	892.93	0.508
298.15 K	881.96	0.462
308.15 K	870.85	0.426

CC1COC(=O)O1 (configuration not stated) [4-methyl-1,3-dioxolan-2-one]
[1]
Settings	mass density [kg/m3]	viscosity [mPa·s]
288.15 K	1208.67	3.086
298.15 K	1197.58	2.5
308.15 K	1187.16	2.073

C1CCOC1 [tetrahydrofuran] + CC1COC(=O)O1
[2], x2 = 0
Settings	mass density [kg/m3]	viscosity [mPa·s]
288.15 K	892.93	0.508
298.15 K	881.96	0.462
308.15 K	870.85	0.426

C1COCCO1 [1,4-dioxane]
[1]
Settings	mass density [kg/m3]	viscosity [mPa·s]
288.15 K	1039.1	1.44
298.15 K	1027.92	1.185
308.15 K	1016.55	1.029

CC1COC(=O)O1 (configuration not stated) [4-methyl-1,3-dioxolan-2-one] + CC(=O)CC(C)=O
[2], x1 = 1
Settings	mass density [kg/m3]	viscosity [mPa·s]
288.15 K	1208.67	3.086
298.15 K	1197.58	2.5
308.15 K	1187.16	2.073

CC(=O)CC(C)=O [2,4-pentanedione]
[1]
Settings	mass density [kg/m3]	viscosity [mPa·s]
288.15 K	980.34	0.741
298.15 K	972.18	0.67
308.15 K	963.46	0.609

C1COCCO1 [1,4-dioxane] + CC1COC(=O)O1
[2], x2 = 0
Settings	mass density [kg/m3]	viscosity [mPa·s]
288.15 K	1039.1	1.44
298.15 K	1027.92	1.185
308.15 K	1016.55	1.029
